Measurements taken from PMC9503112, “Synthesis, Molecular Docking, In Vitro and In Vivo Studies of Novel Dimorpholinoquinazoline-Based Potential Inhibitors of PI3K/Akt/mTOR Pathway” (International Journal of Molecular Sciences, 2022).
pIC50: −log10 of the molar value.

Columns and labels:
MCF7 = assay: Antiproliferative activity, MTT assay; format: cell-based; conditions: Homo sapiens, 72 h, standard deviations within 50%
Protocol: (§1) Human breast cancer MCF7, MDA-MB-231, SkBr-3 (purchased from the ATCC collection), human keratinocytes HaCaT, murine fibroblasts L929 and macrophages J774 cells (Collection of Shemyakin-Ovchinnikov Institute of Bioorganic Chemistry RAS) were cultured in standard DMEM or RPMI-1640 medium (ThermoScientific, Waltham, MA, USA) supplemented with 10% fetal bovine serum (FBS, Cytiva, Marlborough, MA, USA) at 37 °C, 5 % CO2 and 80–85% humidity (NuAir CO2 incubator). The cell growth was evaluated by MTT (3-[4,5-dimethylthiazol-2-yl]-2,5-diphenyltetrazolium bromide) test. Cells were seeded at a density of 5 × 10^3 cells per well in 96-well flat-bottomed plates (TPP). The compounds were dissolved in DMSO (AppliChem) to 10 mM before the experiments, and then the resulting solutions were diluted by the medium to the required concentrations. Solutions of the tested compounds with different concentrations in 100 μL of the medium were added and the cells were grown for 72 h. MTT (10 μL/well, 5 mg/mL) was added for the final 3 h. The formazan purple crystals were dissolved in DMSO (100 μL per well). The absorbance of solutions was measured at 540 nm with a MultiScan reader (ThermoFisher). Results were analyzed by Excel package (Microsoft). The inhibition of proliferation (inhibitory index) was calculated as [1–(ODexperiment/ODcontrol)], where OD was MTT optical density. IC50 (Table 1) was determined as the concentration giving 50% of inhibition in the comparison with it […].

MDA-MB-231 = assay: Antiproliferative activity, MTT assay; format: cell-based, human; conditions: Homo sapiens, MDA-MB-231; MTT, 72 h; standard deviations within 50%
Protocol: as §1

keratinocytes HaCaT = assay: Antiproliferative activity, MTT assay; format: cell-based; conditions: Homo sapiens, 72 h, standard deviations within 50%
Protocol: as §1

fibroblasts L929 = assay: Antiproliferative activity, MTT assay; format: cell-based, murine; conditions: Mus musculus, 72 h, standard deviations within 50%
Protocol: as §1

macrophages J774 = assay: Antiproliferative activity, MTT assay; format: cell-based, murine; conditions: Mus musculus, 72 h, standard deviations within 50%
Protocol: as §1

[1] = target: T1, recombinant PI3K (p110α/p85α) (Homo sapiens, UniProt P42336); assay: PI3K inhibition assay (HTRF); format: biochemical; conditions: FRET/HTRF detection; approximate; read-out: IC50 PI3Kα
T1 construct: purchased Millipore 14-602
Protocol: The PI 3-Kinase (Class I) HTRF Assay Kit (Cat# 33-016 from Millipore) was used to determine the activity of recombinant PI3K (p110α/p85α) human (Cat# 14-602 from Millipore). The kit was supplemented with ATP (Cat# A26209 from Sigma-Aldrich, St. Louis, MI, USA), DL-dithiothreitol (Cat# S-[…]-1 from Sigma-Aldrich), and Wortmannin inhibitor (Cat# 12-338 from Millipore, Burlington, MA, USA). The latter was used at 0.1 μM concentration. For measurements, a Victor ×5 plate reader (PerkinElmer, 2030, Waltham, MA, USA) was used in TRF mode with excitation at 340 nm. Fluorescence emission was recorded at 613 and 670 nm in a 384-well plate (Cat# S-CLS3658 from Sigma-Aldrich) at a time interval of 150-350 μs. The enzymatic reaction and the determination of its products were carried out according to the recommendations of the reagent kit manufacturer (Millipore) in two wells for each sample. In calculations, readings in parallel wells were averaged. The calculations were made according to the recommendations of the equipment manufacturer.

SkBr-3 cells = assay: Cell cycle analysis (PI-stained DNA, flow cytometry); format: cell-based, human
Protocol: The cell cycle was analyzed using PI-stained DNA. Cells from the compounds 7 treated cultures were collected at 24, 48, and 72 h, trypsinized, washed in ice-cold PBS, fixed by the addition of 70% ethanol and left for 2 h at −20 °C. Thereafter, the cells were washed twice in PBS, stained with 50 μg/mL of propidium iodide (Sigma, Merck KGaA, Darmstadt, Germany) in PBS, treated with 10 µg/mL of RNAse and analyzed by flow cytometry using FACScan device (BD, USA). A total of 2000 events were collected. The results were analyzed using FlowJo 10 software (BD, Franklin Lakes, NJ, USA).

MCF7 breast cancer cells = test system: MCF7 breast cancer cells; parameters: method as in PMID 32825760; conditions: read-out: Concentration causing 50% suppression of MCF7 cell growth; cited from earlier work
[2] = test system: PI3K/Akt/mTOR signaling pathway in MCF7 cells; assay: Immunoblotting of PI3K/Akt/mTOR phosphorylation; format: cell-based, human; conditions: 500 nM
Protocol: MCF7 cells were seeded onto 100 mm dishes (Corning) and cultivated for 24 h. Compound 7c was added at different concentrations while the reference compound wortmannin (Selleckchem, Houston, TX, USA) was used at 500 nM. The cells were harvested after 72 h of growth with the compounds. To prepare cell extracts, MCF7 cells were twice washed in phosphate buffer and incubated for 10 min on ice in the modified lysis buffer containing 50 mM Tris-HCl, pH 7.5, 0.5% Igepal CA-630, 150 mM NaCl, 1 mM EDTA, 1 mM DTT, 1 mM PMSF, 0.1 mM sodium orthovanadate and aprotinin, leupeptin, pepstatin (1 µg/mL each). The protein content was determined by the Bradford method. Cell lysates were separated in 10% SDS-PAGE under reducing conditions, transferred to a nitrocellulose membrane (GE HealthCare, Chicago, IL, USA), and processed according to a standard protocol. To prevent nonspecific absorption, the membranes were treated with 5% nonfat milk solution in TBS buffer (20 mM Tris, 500 mM NaCl, pH 7.5) with 0.1% Tween-20 and then incubated with primary antibodies (Cell Signaling Technology, Danvers, MA, USA) overnight at 4 °C. […] Signals were detected using the ECL reagent using the ImageQuant LAS4000 system (GE HealthCare, Chicago, IL, USA).
The signals of phospho-proteins to total ones were calculated using the ImageJ program from inverted images of the bands.

T1 sequence (P42336 whole entry): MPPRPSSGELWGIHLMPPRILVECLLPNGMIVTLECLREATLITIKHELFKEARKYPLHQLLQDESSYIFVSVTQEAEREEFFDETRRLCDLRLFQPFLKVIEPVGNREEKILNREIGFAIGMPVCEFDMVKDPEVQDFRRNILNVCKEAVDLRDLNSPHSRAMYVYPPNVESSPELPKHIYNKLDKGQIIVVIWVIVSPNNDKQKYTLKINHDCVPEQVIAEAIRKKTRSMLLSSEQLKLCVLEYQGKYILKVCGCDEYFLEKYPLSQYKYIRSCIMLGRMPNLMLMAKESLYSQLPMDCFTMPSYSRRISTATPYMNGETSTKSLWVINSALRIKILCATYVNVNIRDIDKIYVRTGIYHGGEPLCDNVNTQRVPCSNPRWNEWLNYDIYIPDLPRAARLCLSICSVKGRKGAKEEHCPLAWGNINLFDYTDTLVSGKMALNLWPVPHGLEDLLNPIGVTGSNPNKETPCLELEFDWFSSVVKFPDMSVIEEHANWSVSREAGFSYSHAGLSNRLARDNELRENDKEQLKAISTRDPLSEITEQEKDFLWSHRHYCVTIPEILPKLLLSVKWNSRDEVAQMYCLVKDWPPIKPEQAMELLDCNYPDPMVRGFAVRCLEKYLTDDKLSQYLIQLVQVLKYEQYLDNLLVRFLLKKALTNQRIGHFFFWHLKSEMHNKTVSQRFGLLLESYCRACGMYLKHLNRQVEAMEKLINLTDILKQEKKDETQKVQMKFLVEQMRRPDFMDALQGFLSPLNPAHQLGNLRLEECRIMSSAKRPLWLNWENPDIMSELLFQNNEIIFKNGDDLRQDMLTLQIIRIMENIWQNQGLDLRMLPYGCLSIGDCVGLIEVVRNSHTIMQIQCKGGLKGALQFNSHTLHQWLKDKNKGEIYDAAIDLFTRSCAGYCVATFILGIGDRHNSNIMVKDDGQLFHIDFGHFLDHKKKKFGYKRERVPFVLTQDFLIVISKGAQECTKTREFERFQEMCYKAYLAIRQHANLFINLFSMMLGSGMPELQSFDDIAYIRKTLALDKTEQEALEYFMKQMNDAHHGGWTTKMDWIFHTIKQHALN
T1 sequence (P27986 whole entry partner): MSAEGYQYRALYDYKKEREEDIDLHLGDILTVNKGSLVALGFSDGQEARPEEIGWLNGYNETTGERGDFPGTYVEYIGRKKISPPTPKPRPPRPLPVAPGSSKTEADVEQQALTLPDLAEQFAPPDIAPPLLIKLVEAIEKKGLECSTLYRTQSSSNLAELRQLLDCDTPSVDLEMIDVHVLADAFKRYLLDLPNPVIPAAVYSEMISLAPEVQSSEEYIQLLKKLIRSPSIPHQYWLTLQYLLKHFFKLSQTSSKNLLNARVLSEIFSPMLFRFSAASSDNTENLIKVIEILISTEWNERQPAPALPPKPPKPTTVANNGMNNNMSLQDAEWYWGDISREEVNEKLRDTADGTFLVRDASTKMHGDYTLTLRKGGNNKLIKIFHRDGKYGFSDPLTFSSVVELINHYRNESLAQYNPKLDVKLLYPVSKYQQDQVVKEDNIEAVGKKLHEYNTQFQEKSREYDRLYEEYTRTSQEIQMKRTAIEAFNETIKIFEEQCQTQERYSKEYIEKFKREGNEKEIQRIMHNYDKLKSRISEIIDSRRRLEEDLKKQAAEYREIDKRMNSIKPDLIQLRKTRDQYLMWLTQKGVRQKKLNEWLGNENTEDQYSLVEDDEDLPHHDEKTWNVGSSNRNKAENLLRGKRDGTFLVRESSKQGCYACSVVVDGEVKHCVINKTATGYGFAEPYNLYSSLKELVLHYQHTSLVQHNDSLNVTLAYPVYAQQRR

SMILES	melting point [°C]	pIC50 (MCF7)	pIC50 (MDA-MB-231)	pIC50 (keratinocytes HaCaT)	pIC50 (fibroblasts L929)	pIC50 (macrophages J774)	pIC50 [1]	Concentration above which all cells died (SkBr-3 cells)	Concentration below which no changes in the cell cycle were found (SkBr-3 cells)	pIC50 (MCF7 breast cancer cells)	Effect on PI3K/Akt/mTOR signaling pathway [2]
Nc1ccc(-c2ccc3c(N4CCOCC4)nc(N4CCOCC4)nc3c2)cc1 [Compound 6, 4-(2,4-Dimorpholinoquinazolin-7-yl)aniline]	191 to 193	–	–	–	–	–	–	–	–	–	–
O=C(NCc1ccco1)Nc1ccc(-c2ccc3c(N4CCOCC4)nc(N4CCOCC4)nc3c2)cc1 [Compound 7a, 1-(4-(2,4-Dimorpholinoquinazolin-7-yl)phenyl)-3-(furan-2-ylmethyl)urea]	184 to 186	5.18	5.17	–	–	–	–	–	–	–	–
COc1ccc(CNC(=O)Nc2ccc(-c3ccc4c(N5CCOCC5)nc(N5CCOCC5)nc4c3)cc2)cc1 [Compound 7b, 1-(4-(2,4-Dimorpholinoquinazolin-7-yl)phenyl)-3-(4-methoxybenzyl)urea]	–	5.96	5.77	6.10	4.92	5.80	~4.30	higher than 10 μM	below 1 μM	–	–
O=C(Nc1ccc(-c2ccc3c(N4CCOCC4)nc(N4CCOCC4)nc3c2)cc1)NC1CC1 [Compound 7d, 1-Cyclopropyl-3-(4-(2,4-dimorpholinoquinazolin-7-yl)phenyl)urea]	83 to 85	5.28	4.98	–	–	–	–	–	–	–	–
N[C@@H](CCCCNC(=O)Nc1ccc(-c2ccc3c(N4CCOCC4)nc(N4CCOCC4)nc3c2)cc1)C(=O)O [Compound 7e, N6-((4-(2,4-Dimorpholinoquinazolin-7-yl)phenyl)carbamoyl)lysine]	89 to 91	5.02	4.62	4.92	4.92	4.92	–	–	–	–	–
O=C(Nc1ccc(-c2ccc3c(N4CCOCC4)nc(N4CCOCC4)nc3c2)cc1)Nc1ccc([N+](=O)[O-])cc1 [Compound 7f, 1-(4-(2,4-Dimorpholinoquinazolin-7-yl)phenyl)-3-(4-nitrophenyl)urea]	240 to 242	5.19	5.06	5.52	4.92	5.22	–	–	–	–	–
O=C(Nc1ccc(F)cc1)Nc1ccc(-c2ccc3c(N4CCOCC4)nc(N4CCOCC4)nc3c2)cc1 [Compound 7g, 1-(4-(2,4-Dimorpholinoquinazolin-7-yl)phenyl)-3-(4-fluorophenyl)urea]	–	5.31	4.85	4.60	4.60	5.22	–	–	–	–	–
O=C(Nc1ccc(-c2ccc3c(N4CCOCC4)nc(N4CCOCC4)nc3c2)cc1)Nc1ccccn1 [Compound 7h, 1-(4-(2,4-Dimorpholinoquinazolin-7-yl)phenyl)-3-(pyridin-2-yl)urea]	210 to 212	4.89	4.85	5.52	4.92	5.22	–	–	–	–	–
O=C(Nc1ccc(-c2ccc3c(N4CCOCC4)nc(N4CCOCC4)nc3c2)cc1)Nc1cccc2ccccc12 [Compound 7i, 1-(4-(2,4-Dimorpholinoquinazolin-7-yl)phenyl)-3-(naphthalen-1-yl)urea]	228 to 230	5.21	4.96	5.22	5.22	5.22	–	–	–	–	–
COC(=O)c1ccc(NC(=O)Nc2ccc(-c3ccc4c(N5CCOCC5)nc(N5CCOCC5)nc4c3)cc2)cc1 [Compound 7j, Methyl 4-(3-(4-(2,4-Dimorpholinoquinazolin-7-yl)phenyl)ureido)benzoate]	–	5.42	5.39	5.52	5.52	6.10	–	higher than 10 μM	below 1 μM	–	–
CCOC(=O)N1CCN(C(=O)Nc2ccc(-c3ccc4c(N5CCOCC5)nc(N5CCOCC5)nc4c3)cc2)CC1 [Compound 7k, Ethyl 4-((4-(2,4-Dimorpholinoquinazolin-7-yl)phenyl)carbamoyl)piperazine-1-carboxylate]	109 to 111	4.96	4.77	5.22	4.60	5.52	–	–	–	–	–
C#CCNC(=O)Nc1ccc(-c2ccc3c(N4CCOCC4)nc(N4CCOCC4)nc3c2)cc1 [Compound 7l, 1-(4-(2,4-Dimorpholinoquinazolin-7-yl)phenyl)-3-(prop-2-yn-1-yl)urea]	168 to 170	< 4.30	< 4.30	5.52	< 4.30	5.22	–	–	–	–	–
CN(C)C(=N)N=C(N)N [MF, metformin]	–	–	–	–	–	–	–	–	–	2.24	–
COC[C@H]1OC(=O)c2coc3c2[C@@]1(C)C1=C(C3=O)[C@@H]2CCC(=O)[C@@]2(C)C[C@H]1OC(C)=O [wortmannin, reference compound]	–	–	–	–	–	–	–	–	–	–	neither affects PI3K/Akt/mTOR signaling pathway even at 500 nM
